Test results as given in PMC12615753, “Glutathione as a taste modulator: molecular mechanisms of interaction with umami and sweet taste receptors” (Food Chemistry: Molecular Sciences, 2025).

Molecular target: T1, hTAS1R1/rTAS1R3(Mut1) (UniProt Q7RTX1+Q923K1, A277V/L68N/R278H/S168G/S302A)
T1 sequence (Q7RTX1 21-841): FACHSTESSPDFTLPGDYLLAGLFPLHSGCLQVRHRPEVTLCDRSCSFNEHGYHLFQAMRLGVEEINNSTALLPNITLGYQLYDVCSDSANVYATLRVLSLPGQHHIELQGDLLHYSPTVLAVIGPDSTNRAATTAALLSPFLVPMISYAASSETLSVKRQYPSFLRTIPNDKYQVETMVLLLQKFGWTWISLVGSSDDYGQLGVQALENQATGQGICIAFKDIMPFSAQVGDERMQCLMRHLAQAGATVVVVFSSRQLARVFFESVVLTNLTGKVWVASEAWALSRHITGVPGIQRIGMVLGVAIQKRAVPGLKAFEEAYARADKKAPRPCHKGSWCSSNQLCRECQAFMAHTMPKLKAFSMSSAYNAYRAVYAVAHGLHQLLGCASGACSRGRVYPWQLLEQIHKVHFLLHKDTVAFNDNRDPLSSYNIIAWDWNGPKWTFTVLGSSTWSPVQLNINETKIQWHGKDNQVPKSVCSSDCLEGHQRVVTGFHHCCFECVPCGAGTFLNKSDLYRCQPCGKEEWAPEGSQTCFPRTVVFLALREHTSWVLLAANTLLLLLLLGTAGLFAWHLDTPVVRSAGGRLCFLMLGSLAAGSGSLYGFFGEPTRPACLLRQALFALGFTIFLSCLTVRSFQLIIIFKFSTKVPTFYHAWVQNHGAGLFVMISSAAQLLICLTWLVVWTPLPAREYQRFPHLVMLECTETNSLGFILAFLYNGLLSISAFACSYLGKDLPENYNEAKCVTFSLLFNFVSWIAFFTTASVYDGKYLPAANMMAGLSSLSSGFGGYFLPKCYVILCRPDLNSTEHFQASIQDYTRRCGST
T1 sequence (Q923K1 21-858 L68N/S168G/A277V/R278H/S302A): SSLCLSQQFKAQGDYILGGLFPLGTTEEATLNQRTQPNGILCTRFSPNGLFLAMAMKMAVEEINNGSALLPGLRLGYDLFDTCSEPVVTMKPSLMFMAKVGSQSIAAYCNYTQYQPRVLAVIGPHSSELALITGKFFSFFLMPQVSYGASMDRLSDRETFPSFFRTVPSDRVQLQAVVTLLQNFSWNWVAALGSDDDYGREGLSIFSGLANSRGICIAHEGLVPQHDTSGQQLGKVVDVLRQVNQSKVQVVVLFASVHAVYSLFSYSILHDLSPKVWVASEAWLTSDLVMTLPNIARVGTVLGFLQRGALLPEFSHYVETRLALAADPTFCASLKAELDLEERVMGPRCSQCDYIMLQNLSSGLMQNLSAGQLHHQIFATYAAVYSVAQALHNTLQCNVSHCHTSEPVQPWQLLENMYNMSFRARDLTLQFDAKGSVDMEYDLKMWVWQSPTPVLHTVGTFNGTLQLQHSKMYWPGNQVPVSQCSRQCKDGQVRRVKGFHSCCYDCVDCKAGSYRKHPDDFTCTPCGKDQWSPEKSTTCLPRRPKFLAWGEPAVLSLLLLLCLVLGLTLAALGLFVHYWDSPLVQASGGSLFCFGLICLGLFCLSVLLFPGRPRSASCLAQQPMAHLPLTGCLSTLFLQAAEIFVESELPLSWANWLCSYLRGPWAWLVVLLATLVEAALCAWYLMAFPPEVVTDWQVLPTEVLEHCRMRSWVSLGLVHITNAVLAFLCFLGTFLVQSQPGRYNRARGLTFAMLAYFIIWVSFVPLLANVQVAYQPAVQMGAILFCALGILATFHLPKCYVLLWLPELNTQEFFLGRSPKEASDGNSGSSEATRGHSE
Assay: Calcium assay, mutated rTAS1R3 co-expressed with hTAS1R1
Procedure: HEK293T/17 cells (ATCC CRL-11268) were seeded into clear bottom black 96-well plates coated with poly-D-lysine at a density of 32500 cells/well in 100 μL of DMEM containing 4.5 g/L glucose and supplemented with penicillin/streptomycin, 2 mM GlutaMAX and 10 % dialyzed fetal bovine serum. The plates were incubated for 24 h at 37 °C and 7.3 % CO2 in a humidified atmosphere. After incubation, using Fugene® 4 K (0.46 μL/well, Promega, Illkirch, France), the cells were transiently transfected with pcDNA3-hTAS1R1-WT (60 ng/well) or TAS1R1 mutants, pcDNA4-rTAS1R3 (60 ng/well), pcDNA3-Gα15i2 (10 ng/well), and pGP-CMV-GCaMP6s (Addgene #40753; 10 ng/well) as a genetically encoded calcium indicator. Twenty-four hours after transfection, the HEK293T/17 cells were rinsed with 100 μL of C1 buffer (130 mM NaCl, 5 mM KCl, 10 mM HEPES, 2 mM CaCl2, and 5 mM sodium pyruvate, pH 7.4). For each molecule tested, a semi-logarithmic concentration range was created consisting of seven increasing concentrations and a negative control (zero dose) made of buffer C1. Binary mixtures with different molecules were also made to study potential synergy. In this case, the concentration range was tested in C1 buffer containing the other molecules to be tested. The concentration ranges varied depending on the molecule, its solubility, and its effectiveness in activating the receptor. All the solutions were made on the day of the test to prevent any oxidation of the compounds. If needed, the pH of each solution was adjusted by to pH 7.4 by adding NaOH. After 20 s of basal fluorescence calcium measurement, the cells were stimulated via automatic injection of a range of compounds in eight wells, and the signal emission was recorded for an additional 70 s, via a FlexStation 3® fluorometric microplate reader (Molecular Devices, San Jose, CA, USA). As a control, molecules were also tested on mock-transfected cells with the empty vector. The emitted fluorescence was measured at a wavelength of 510 nm after excitation at 488 nm. Each measurement was performed in duplicate on the same plate, and the experiments were carried out at least four times. Kinetic data were acquired via SoftMax Pro 5.4.6 software (Molecular Devices). For each well, the decrease in the raw fluorescence as the relative fluorescence changed was calculated as ΔF/F0. Replicates were averaged for the wells subjected to the same stimuli, the background signal was subtracted, and the fluorescence changes in mock-transfected cells were subtracted. The half-maximal effective concentration (EC50) and maximal signal amplitude (max ∆F/F0) were calculated via non-linear regression of the sigmoidal function four-parameter logistic equation [f(x) = min + (max − min)/(1 + (x/EC50)^nH)] via SigmaPlot 15.0 software (Grafiti LLC, Palo Alto, CA, USA). […] For a clearer understanding of the results, the amplitude values in certain dose-response curves were normalized to max ∆F/F0 = 1, to eliminate the differences in amplitude.
We also selected other residues surrounding the cavity that differed from species to species and were not directly involved in ligand binding but rather in dynamic phenomena resulting in signal transmission, namely, four residues located less deep in the binding cavity that we mutated to their human counterparts (Y281H, S282A, P67S, L72W) (Mut2) (Fig. S3). Finally, we targeted positions at the interface between the VFTs of TAS1R1 and TAS1R3. […] A double mutant (E221Q and R173L) (Mut3) was thus created. For each group, we constructed multisite mutants (penta-, quadruple-, or double-mutants) to assess their combined effects efficiently.

| Compound | EC50 [mM] | effect of the added compound on the response to L-Glu (Mut1) | response to the agonist alone (Mut1) |
| --- | --- | --- | --- |
| N[C@@H](CCC(=O)N[C@@H](CS)C(=O)NCC(=O)O)C(=O)O [GSH, γ-L-glutamyl-L-cysteinyl-glycine] | 9.01 ± 0.697 | increased | reduced |
| N[C@@H](CCC(=O)O)C(=O)O [L-Glu, L-glutamic acid, reference compound] | – | – | responded |
| CCCC(CCC)NC(=O)c1ccc2c(c1)OCO2 [S807, N-(heptan-4-yl)benzo[d][1,3]dioxole-5-carboxamide, reference compound] | 0.00169 ± 0.0001 | – | unaffected |
